Usually EC50 stands for the concentration giving half of the maximal effect. The term Kd denotes the free concentration of one partner at which half of the binding sites on the other are occupied at equilibrium, for simple one-to-one binding. Read a high Kd as lower affinity. A word on the Emax: it is the maximal effect, on the per cent scale that the assay sets.

Assay [1] deals with Eotaxin-3 (CCL26) release in human whole blood stimulated with IL-4. The assay can be described thus: Human whole blood eotaxin-3 assay (IL-4 stimulated eotaxin-3 release). It counts as cell-based. The conditions noted are these: Homo sapiens, 48 h, human whole blood stimulated with recombinant human IL-4, 48 h, geometric mean; for EC50: inhibition of eotaxin-3 release, given for test compounds with >80% Emax. In short, it runs like this:
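Eotaxin-3 (CCL26) release was quantified by MSD immunoassay in supernatants of human heparinised whole blood after 48 h at 37° C with IL-4 ([…] final). Compounds, in 4-fold dilutions at 0.5% DMSO, were added 2 h before stimulation.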

Assay [2] concerns the target T1, Human STAT6 (truncated, aa122-658, with N-terminal His-tag) (Homo sapiens, UniProt P42226).
T1 construct: Human STAT6 (truncated, aa122-658, with N-terminal His-tag, expressed in insect cells); His-tag (N); made in house; host or cells: insect cells
T1 sequence (P42226 122-658): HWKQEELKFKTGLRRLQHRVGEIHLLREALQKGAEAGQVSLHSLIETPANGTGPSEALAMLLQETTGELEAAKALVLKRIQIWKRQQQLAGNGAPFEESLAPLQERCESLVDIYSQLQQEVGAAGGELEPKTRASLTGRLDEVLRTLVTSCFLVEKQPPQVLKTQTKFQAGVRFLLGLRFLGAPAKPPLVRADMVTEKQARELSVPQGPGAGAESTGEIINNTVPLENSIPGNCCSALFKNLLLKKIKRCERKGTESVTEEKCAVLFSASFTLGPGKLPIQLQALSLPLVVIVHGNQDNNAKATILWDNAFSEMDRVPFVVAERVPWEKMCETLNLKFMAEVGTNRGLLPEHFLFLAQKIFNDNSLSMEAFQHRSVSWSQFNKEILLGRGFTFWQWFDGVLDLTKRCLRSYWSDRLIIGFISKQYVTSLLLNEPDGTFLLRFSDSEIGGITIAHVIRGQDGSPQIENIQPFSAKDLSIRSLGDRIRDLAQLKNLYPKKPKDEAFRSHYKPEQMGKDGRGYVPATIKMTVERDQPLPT
The assay can be described thus: Surface plasmon resonance (SPR) assay, binding to human STAT6. The settings on record: Biacore 8K, 25° C, immobilized human STAT6 on CM5 chip, multi-cycle kinetics; geometric mean. In short, it runs like this:
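Truncated STAT6 (aa122-658, N-His, insect-cell expressed) was amine-coupled to a CM5 chip, and compounds were run as multi-cycle kinetics at 25 °C in PBS-P+ with 2% DMSO (60 s contact, up to 300 s dissociation). KD came from steady-state isotherms at a late report point, fitted with free and with fixed theoretical Rmax (1:1).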
In general terms: In SPR one partner is held on a chip, and binding of the other changes the refractive index at the surface.

As to `CNc1ccn(-c2ccnc3c2cc(CN2CC=C(c4ncc(C(=O)N(C)C)cc4F)CC2)n3C)c(=O)c1` [Example 1m67, 5-Fluoro-N,N-dimethyl-6-[1-[[1-methyl-4-[4-(methylamino)-2-oxo-1-pyridyl]pyrrolo[2,3-b]pyridin-2-yl]methyl]-3,6-dihydro-2H-pyridin-4-yl]pyridine-3-carboxamide], the EC50 in assay [1] came to 80.1 nM. The molecule further showed a Kd in assay [2] of 33.4 nM.
As for `CN(C)C(=O)c1ccc(C2CCN(Cc3cc4c(-n5ccc(N)c(C(F)(F)F)c5=O)ccnc4n3C)CC2)cc1` [Example 1d29, 4-[1-[[4-[4-Amino-2-oxo-3-(trifluoromethyl)-1-pyridyl]-1-methyl-pyrrolo[2,3-b]pyridin-2-yl]methyl]-4-piperidyl]-N,N-dimethyl-benzamide], the EC50 in assay [1] came to 588 nM. In assay [2], this molecule returned a Kd of 28.6 nM.
For `CN(C)C(=O)c1ccc(C2CCN(Cc3cc4c(-n5ccc(N)nc5=O)ccnc4n3C)CC2)cc1` [Example 1ab6, 4-(1-((4-(4-Amino-2-oxopyrimidin-1 (2H)-yl)-1-methyl-1H-pyrrolo[2,3-b]pyridin-2-yl)methyl)piperidin-4-yl)-N,N-dimethylbenzamide], the Emax in assay [1] (given for test compounds with <80% Emax) is 70 to 80%. Also, binding in assay [2] was put at a Kd of 37.3 nM.
With `CNc1ccn(-c2ccnc3c2cc([C@@H](C)N2CCC(c4ccc(C(=O)N(C)C)cc4)CC2)n3C)c(=O)c1` (single isomer, unassigned) [Example 1m73], in assay [1], the concentration giving a half-maximal response (EC50) turned out to be 26 nM. Further, in assay [2], the dissociation constant (Kd) was 12.1 nM.
Consider `CN(C)C(=O)c1ccc(C2CCN(Cc3cc4c(-n5cc(F)c(N)cc5=O)ccnc4n3C)CC2)cc1` [Example 1d19, 4-[1-[[4-(4-Amino-5-fluoro-2-oxo-1-pyridyl)-1-methyl-pyrrolo[2,3-b]pyridin-2-yl]methyl]-4-piperidyl]-N,N-dimethyl-benzamide], for which the EC50 in assay [1] came to 257 nM. The molecule also had a dissociation constant (Kd) in assay [2] of 32.9 nM.
For `CNc1ccn(-c2ccnc3c2cc(CN2CCC(c4ccc(C(=O)N(C)C)cc4F)CC2)n3C)c(=O)c1` [Example 1d34, 3-Fluoro-N,N-dimethyl-4-[1-[[1-methyl-4-[4-(methylamino)-2-oxo-1-pyridyl]pyrrolo[2,3-b]pyridin-2-yl]methyl]-4-piperidyl]benzamide] the same measures were 29.8 nM and 14.2 nM.
With `CNc1ccn(-c2ccnc3c2cc(CN2CC=C(c4ccc(C(=O)N(C)C)cc4C)CC2)n3C)c(=O)c1` [Example 1m9, N,N,3-Trimethyl-4-(1-((1-methyl-4-(4-(methylamino)-2-oxopyridin-1 (2H)-yl)-1H-pyrrolo[2,3-b]pyridin-2-yl)methyl)-1,2,3,6-tetrahydropyridin-4-yl)benzamide], in assay [1], the EC50 stood at 32.1 nM. Besides, binding in assay [2] was put at a Kd of 11.8 nM.
For `CNc1ccn(-c2ccnc3c2cc(CN2CCN(c4ccc(C(=O)N(C)C)cc4C)C[C@@H]2C)n3C)c(=O)c1` [Example 1m18, (S)—N,N,3-Trimethyl-4-(3-methyl-4-((1-methyl-4-(4-(methylamino)-2-oxopyridin-1 (2H)-yl)-1H-pyrrolo[2,3-b]pyridin-2-yl)methyl)piperazin-1-yl)benzamide] the same measures were 53.6 nM and 18.9 nM.
For `Cc1c(N)ccn(-c2ccnc3c2cc(CN2CCC(c4ccc(C(=O)N(C)C)cc4)CC2)n3C)c1=O` [Example 1d21, 4-[1-[[4-(4-Amino-3-methyl-2-oxo-1-pyridyl)-1-methyl-pyrrolo[2,3-b]pyridin-2-yl]methyl]-4-piperidyl]-N,N-dimethyl-benzamide], the EC50 in assay [1] was found to be 95.8 nM. The Kd in assay [2] came to 21 nM.
For `CNc1ccn(-c2ccnc3c2cc(CN2CC[C@@H](c4ccc(C(=O)N(C)C)cc4)[C@H](F)C2)n3C)c(=O)c1` (single isomer, unassigned) [Example 1f4] the same measures were 205 nM and 32.2 nM.

For the origin of these results see patent publication US20260001893A1, “SMALL MOLECULE MODULATORS OF STAT6” (Gilead Sciences, Inc., priority 2024, published 2026).
